The NIST ThermoML archive (doi:10.1021/acs.jced.8b00554)
± gives the expanded uncertainty stated by the source.

Test: xn = mol fraction of the nth substance listed
Conditions: Liquid, Vibrating tube method

CCCCCCCCC [nonane] + CCCO
Conditions	mass density [kg/m3]
333.15 K, 6020 kPa, x2 = 0.1231	692.22 ± 4.4
333.15 K, 6020 kPa, x2 = 0.3229	700.03 ± 4.5
333.15 K, 7000 kPa, x2 = 0.2315	697.33 ± 4.5
333.15 K, 7010 kPa, x2 = 0.1231	693.22 ± 4.4
333.15 K, 7010 kPa, x2 = 0.3229	701.03 ± 4.5
333.15 K, 7010 kPa, x2 = 0.4272	706.53 ± 4.5
333.15 K, 7010 kPa, x2 = 0.7021	728.53 ± 4.7
333.15 K, 7010 kPa, x2 = 0.8941	754.12 ± 4.8
333.15 K, 8000 kPa, x2 = 0.3229	702.03 ± 4.5
333.15 K, 8010 kPa, x2 = 0.1231	694.22 ± 4.5
333.15 K, 8010 kPa, x2 = 0.7021	729.53 ± 4.7
333.15 K, 8010 kPa, x2 = 0.8941	755.09 ± 4.8
333.15 K, 8020 kPa, x2 = 0.2315	698.33 ± 4.5
333.15 K, 8020 kPa, x2 = 0.4272	707.53 ± 4.5
333.15 K, 9010 kPa, x2 = 0.2315	699.32 ± 4.5
333.15 K, 9010 kPa, x2 = 0.3229	703.05 ± 4.5
333.15 K, 9010 kPa, x2 = 0.4272	708.53 ± 4.5
333.15 K, 9010 kPa, x2 = 0.7021	730.52 ± 4.7
333.15 K, 9010 kPa, x2 = 0.8941	756.05 ± 4.8
333.15 K, 9020 kPa, x2 = 0.1231	695.19 ± 4.5
333.15 K, 10010 kPa, x2 = 0.1231	696.17 ± 4.5
333.15 K, 10010 kPa, x2 = 0.2315	700.3 ± 4.5
333.15 K, 10010 kPa, x2 = 0.3229	704.04 ± 4.5
333.15 K, 10010 kPa, x2 = 0.4272	709.54 ± 4.5
333.15 K, 10020 kPa, x2 = 0.7021	731.49 ± 4.7
333.15 K, 10020 kPa, x2 = 0.8941	757 ± 4.8
333.15 K, 11010 kPa, x2 = 0.1231	697.14 ± 4.5
333.15 K, 11010 kPa, x2 = 0.2315	701.27 ± 4.5
333.15 K, 11010 kPa, x2 = 0.3229	705.01 ± 4.5
333.15 K, 11010 kPa, x2 = 0.4272	710.52 ± 4.5
333.15 K, 11010 kPa, x2 = 0.7021	732.46 ± 4.7
333.15 K, 11010 kPa, x2 = 0.8941	757.95 ± 4.9
333.15 K, 12000 kPa, x2 = 0.1231	698.08 ± 4.5
333.15 K, 12000 kPa, x2 = 0.2315	702.25 ± 4.5
333.15 K, 12000 kPa, x2 = 0.3229	705.98 ± 4.5
333.15 K, 12010 kPa, x2 = 0.4272	711.48 ± 4.6
333.15 K, 12010 kPa, x2 = 0.8941	758.88 ± 4.9
333.15 K, 12020 kPa, x2 = 0.7021	733.42 ± 4.7
333.15 K, 13000 kPa, x2 = 0.3229	706.94 ± 4.5
333.15 K, 13000 kPa, x2 = 0.8941	759.79 ± 4.9
333.15 K, 13010 kPa, x2 = 0.1231	699.03 ± 4.5
333.15 K, 13010 kPa, x2 = 0.4272	712.44 ± 4.6
333.15 K, 13010 kPa, x2 = 0.7021	734.37 ± 4.7
333.15 K, 13020 kPa, x2 = 0.2315	703.18 ± 4.5
333.15 K, 14000 kPa, x2 = 0.3229	707.87 ± 4.5
333.15 K, 14010 kPa, x2 = 0.1231	699.96 ± 4.5
333.15 K, 14010 kPa, x2 = 0.2315	704.11 ± 4.5
333.15 K, 14010 kPa, x2 = 0.4272	713.39 ± 4.6
333.15 K, 14010 kPa, x2 = 0.7021	735.32 ± 4.7
333.15 K, 14010 kPa, x2 = 0.8941	760.71 ± 4.9
333.15 K, 15000 kPa, x2 = 0.2315	705.02 ± 4.5
333.15 K, 15010 kPa, x2 = 0.1231	700.86 ± 4.5
333.15 K, 15010 kPa, x2 = 0.3229	708.79 ± 4.5
333.15 K, 15010 kPa, x2 = 0.4272	714.3 ± 4.6
333.15 K, 15010 kPa, x2 = 0.7021	736.23 ± 4.7
333.15 K, 15010 kPa, x2 = 0.8941	761.6 ± 4.9
333.15 K, 16000 kPa, x2 = 0.4272	715.23 ± 4.6
333.15 K, 16000 kPa, x2 = 0.8941	762.49 ± 4.9
333.15 K, 16010 kPa, x2 = 0.1231	701.75 ± 4.5
333.15 K, 16010 kPa, x2 = 0.2315	705.94 ± 4.5
333.15 K, 16010 kPa, x2 = 0.3229	709.71 ± 4.5
333.15 K, 16020 kPa, x2 = 0.7021	737.15 ± 4.7
333.15 K, 17000 kPa, x2 = 0.3229	710.61 ± 4.6
333.15 K, 17010 kPa, x2 = 0.7021	738.03 ± 4.7
333.15 K, 17010 kPa, x2 = 0.8941	763.38 ± 4.9
333.15 K, 17020 kPa, x2 = 0.1231	702.63 ± 4.5
333.15 K, 17020 kPa, x2 = 0.2315	706.85 ± 4.5
333.15 K, 17020 kPa, x2 = 0.4272	716.11 ± 4.6
333.15 K, 18000 kPa, x2 = 0.3229	711.48 ± 4.6
333.15 K, 18000 kPa, x2 = 0.4272	717 ± 4.6
333.15 K, 18000 kPa, x2 = 0.8941	764.23 ± 4.9
333.15 K, 18010 kPa, x2 = 0.1231	703.52 ± 4.5
333.15 K, 18010 kPa, x2 = 0.2315	707.71 ± 4.5
333.15 K, 18010 kPa, x2 = 0.7021	738.91 ± 4.7
333.15 K, 19000 kPa, x2 = 0.1231	704.35 ± 4.5
333.15 K, 19000 kPa, x2 = 0.2315	708.54 ± 4.5
333.15 K, 19000 kPa, x2 = 0.8941	765.08 ± 4.9
333.15 K, 19010 kPa, x2 = 0.3229	712.34 ± 4.6
333.15 K, 19010 kPa, x2 = 0.4272	717.85 ± 4.6
333.15 K, 19010 kPa, x2 = 0.7021	739.77 ± 4.7
333.15 K, 20000 kPa, x2 = 0.2315	709.37 ± 4.5
333.15 K, 20000 kPa, x2 = 0.8941	765.89 ± 4.9
333.15 K, 20010 kPa, x2 = 0.7021	740.63 ± 4.8
333.15 K, 20020 kPa, x2 = 0.1231	705.18 ± 4.5
333.15 K, 20020 kPa, x2 = 0.3229	713.17 ± 4.6
333.15 K, 20020 kPa, x2 = 0.4272	718.7 ± 4.6
343.15 K, 100 kPa, x2 = 0.1231	677.91 ± 4.3
343.15 K, 100 kPa, x2 = 0.2315	680.7 ± 4.4
343.15 K, 100 kPa, x2 = 0.3229	683.88 ± 4.4
343.15 K, 100 kPa, x2 = 0.4272	688.89 ± 4.4
343.15 K, 100 kPa, x2 = 0.7021	710.15 ± 4.5
343.15 K, 100 kPa, x2 = 0.8941	735.96 ± 4.7
343.15 K, 1000 kPa, x2 = 0.2315	681.31 ± 4.4
